Details in all cases: 1 mM substrate, 1 uM protein, 0.5 mM ATP, 10 mM MgCl2, 32 mM hydroxylamine, 1 mM DTT, pH 7.5, room temperature, 10 min
One experiment addresses T1, MakasB-A2 (Microcystis aeruginosa, UniProt A0A1L7NR43).
T1 construct: single adenylation domain A2 of MakasB; N-terminal His6-MBP fusion (NhisMBP-pET28b(+)), E. coli BLR(DE3)
Briefly: malachite green phosphate assay of adenylation (hydroxylamine, pyrophosphatase). The experiment is classed as biochemical.

The target in a further experiment is T2, MakasA-A1 (Microcystis aeruginosa, UniProt A0A1L7NR41).
T2 construct: single adenylation domain A1 of MakasA; N-terminal His6 (pCold II), E. coli BLR(DE3)
T2 sequence (A0A1L7NR41 1-560 limits assumed): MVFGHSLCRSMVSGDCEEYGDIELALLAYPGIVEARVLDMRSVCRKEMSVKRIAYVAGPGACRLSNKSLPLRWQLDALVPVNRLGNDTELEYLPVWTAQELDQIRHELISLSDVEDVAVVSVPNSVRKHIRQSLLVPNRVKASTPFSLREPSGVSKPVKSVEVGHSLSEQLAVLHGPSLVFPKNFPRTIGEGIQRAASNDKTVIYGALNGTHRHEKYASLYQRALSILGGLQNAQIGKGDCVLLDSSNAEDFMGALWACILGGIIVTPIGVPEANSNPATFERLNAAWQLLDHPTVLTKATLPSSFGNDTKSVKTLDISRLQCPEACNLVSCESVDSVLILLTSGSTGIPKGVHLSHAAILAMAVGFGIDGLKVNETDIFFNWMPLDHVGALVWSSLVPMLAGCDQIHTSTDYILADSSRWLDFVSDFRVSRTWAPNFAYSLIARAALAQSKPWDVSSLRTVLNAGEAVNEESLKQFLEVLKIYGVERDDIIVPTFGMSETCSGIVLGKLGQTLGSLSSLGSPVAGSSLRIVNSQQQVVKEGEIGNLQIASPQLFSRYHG
The description is as above. The experiment is classed as biochemical.

The next experiment concerns the target T3, MakasC-A2 (Microcystis aeruginosa, UniProt A0A1L7NR40).
T3 construct: C-A2-PCP tridomain of MakasC (MakasC-CA2P); N-terminal His6 (pCold II), E. coli BLR(DE3)
The experiment is described as above. The format is biochemical.

A further experiment has as its target T4, MakasB-A1 (Microcystis aeruginosa, UniProt A0A1L7NR43).
T4 construct: C-A1-PCP tridomain of MakasB (MakasB-CA1P); N-terminal His6 (pCold II), E. coli BLR(DE3)
The experiment is described as above. The experiment is classed as biochemical.

A further experiment addresses MakasC-A1 (Microcystis aeruginosa, UniProt A0A1L7NR40).

Molecules are shown by their SMILES.

In the case of `N[C@@H](Cc1c[nH]c2ccccc12)C(=O)O` [L-Trp], the relative adenylation activity result on MakasB-A2 is “exhibited catalytic activities selective for PP, β-Ala, L-Trp, and L-Arg, respectively”.
As to `O=C(O)C(=O)Cc1ccccc1` [phenyl pyruvic acid], the relative adenylation activity result on MakasA-A1 is “exhibited catalytic activities selective for PP, β-Ala, L-Trp, and L-Arg, respectively”.
On to `NC(C(=O)O)C(O)c1ccccc1` (racemic) [DL-threo-3-phenylserine], for which the relative adenylation activity entry on MakasC-A2 is “MakasC-A2 showed higher selectivity to DL-threo-3-phenylserine (DL-threo-PS) than L-Phe”.
For `NCCC(=O)O` [β-Ala], the relative adenylation activity entry on MakasB-A1 was “exhibited catalytic activities selective for PP, β-Ala, L-Trp, and L-Arg, respectively”.
`N=C(N)NCCC[C@H](N)C(=O)O` [L-Arg]: the relative adenylation activity entry on MakasC-A1 was “exhibited catalytic activities selective for PP, β-Ala, L-Trp, and L-Arg, respectively”.

The record behind these values is paper PMC5061366, “Metagenomic Analysis of the Sponge Discodermia Reveals the Production of the Cyanobacterial Natural Product Kasumigamide by ‘Entotheonella’” (PLoS ONE, 2016).
